Results on one compound are retold here after patent US20030105144A1, “Stabilized oral pharmaceutical composition” (priority 2001, published 2003).

This data set is described as follows: Solubility of celecoxib in PEG-400/water. To be noted: 2:1 mixture of PEG-400 and water. Type of data set: physicochemical. As to the method: Water-miscible, nonvolatile liquids such as polyethylene glycols have been successfully used in encapsulated solution formulations. Moreover, polyethylene glycols are also good solvents for drugs of low water solubility because they are known to improve aqueous drug solubility. For example, celecoxib, which has very low solubility in water, is highly soluble (>300 mg/g) in a 2:1 mixture of PEG-400 and water.

Take `Cc1ccc(-c2cc(C(F)(F)F)nn2-c2ccc(S(N)(=O)=O)cc2)cc1` [celecoxib, 4-[5-(4-methylphenyl)-3-(trifluoromethyl)-1H-pyrazol-1-yl]benzenesulfonamide]: the solubility is given as > 300 mg/g.
